Source: patent US12018059B2, “Human amylin analog polypeptides and methods of use” (Intarcia Therapeutics, Inc., priority 2018, dated 2024)
Starred links: 1 amine or outer side, 2 acyl side, 3 side chain; linkers in the order of their positions; H or OH if unused. Positions of bridges follow the written chain, without caps; N, C: chain ends. Non-standard residues stand in square brackets, D forms with d. Residues, ends and D or L forms follow the SMILES beside them. Groups on a side chain read outwards from the residue. *: point of attachment. X4 = CCCCCCCCCCCCCCCC(=O)N[C@@H](CCC(=O)NCOCCOCC(=O)NCOCCOCC(=O)*)C(=O)O; γGlu = O=C(O)[C@H](CCC(=O)[*:2])N[*:1]; Stearoyl = CCCCCCCCCCCCCCCCCC(=O)*; Palmitoyl = CCCCCCCCCCCCCCCC(=O)*

Experiment: in vivo
Design: species or system Sprague-Dawley rats
Conditions: rat, iv, 0.033 mg/kg
Description: Peptides were dissolved in sterile saline and administered as a 1-hour intravenous infusion to non-fasted male Sprague-Dawley rats (n=3 per group) via femoral vein cannula at a final dose of 0.033 mg/kg. […] Blood samples (approximately 250 μL) were collected for pharmacokinetic analysis via a jugular vein cannula at 0.25, 0.5, 0.75, 1, 1.17, 1.33, 1.5, 2, 4, 6, 8, 24, 30 and 48 hr post-start of infusion into microtainer tubes containing K2EDTA as anticoagulant and 25 μL of a protease inhibitor cocktail. Plasma was prepared by centrifugation and stored at −80° C. until analysis. The results of this analysis are shown in Table 9 and few exemplars in FIGS. 3a-3b. […]
A 60 μL aliquot of each plasma sample was placed into to a 96-well plate. To each well was added 6 μL of 0.5% Tween-20. Plates were then vortexed mixed for 10 minutes at 1200 rpm before 180 μL of 0.1% TFA in 2:1 ethanol:acetonitrile containing an appropriate internal standard was added to each well. Plates were vortex mixed for 5 min at 1300 rpm, and then centrifuged for 10 min at 2844×g. Supernatants (180 μL) were placed into a clean 96-well plate and evaporated under a nitrogen stream at 45° C. Residues were reconstituted in 80 μL of 20% acetonitrile (aq) containing 0.1% formic acid.
A […] aliquot of each plasma sample was diluted with […] of 10 mM ammonium acetate (pH 6.8) containing an appropriate internal standard and loaded onto an Oasis WCX microElution plate (Waters Corporation, Milford, MA) that had been pre-conditioned with […] of methanol and […] of deionized water. Samples were washed with […] of 5% ammonium hydroxide (aq) followed by […] of 20% acetonitrile in water. The analyte was eluted with […] of 5% formic acid in 75:25 acetonitrile:water. The eluent was dried under a nitrogen stream. Residues were reconstituted in 80 μL of 20% acetonitrile (aq) containing 0.1% formic acid.
All calibration standards were prepared in control rat plasma containing K2EDTA and protease inhibitor cocktail.
Samples and standards were analyzed by TurbolonSpray™ UPLC-MS/MS using a system consisting of a CTC HTS PAL auto-injector (Leap, Carrboro, NC), an Agilent Infinity 1290 system with column oven (Palo Alto, CA), a Valco switching valve (Houston, TX), and either an AB Sciex API 5600 TripleTOF™ or Sciex API 4000QTrap mass spectrometer (Framingham, MA). Samples were injected onto a 2.1×50 mm reverse phase C18 analytical column, typically a Waters CORTECS UPLC C18+, 1.6 μm (Waters Corporation, Milford, MA) or similar. […] Initial conditions consisted of 90% A and 10% B. The organic component was increased to 95% B over a period of 3-4 minutes, depending on the peptide. Typical flow rates were 600 μL/min. The column temperature was held constant at 40 or 50° C. Peptides were quantified by monitoring one or more product ions produced from a multiply charged parent ion.

Structure (SMILES)	Vd	clearance	half-life
CCCCCCCCCCCCCCCC(=O)N[C@@H](CCC(=O)NCCCC[C@H](NC(=O)[C@H](CC(N)=O)NC(=O)[C@H](C)NC(=O)[C@H](CC(C)C)NC(=O)[C@H](CCCNC(=N)N)NC(=O)[C@H](CCC(N)=O)NC(=O)[C@@H](NC(=O)[C@H](C)NC(=O)[C@@H]1CSSC[C@H](NC(=O)[C@@H](N)CO)C(=O)N[C@@H](CC(N)=O)C(=O)N[C@@H]([C@@H](C)O)C(=O)N[C@@H](CO)C(=O)N[C@@H]([C@@H](C)O)C(=O)N1)[C@@H](C)O)C(=O)N[C@@H](CC(C)C)C(=O)N[C@@H](Cc1c[nH]cn1)C(=O)N[C@@H](CCCCN)C(=O)N[C@@H](CO)C(=O)N[C@@H](CO)C(=O)N[C@@H](CC(N)=O)C(=O)N[C@@H](CC(N)=O)C(=O)N[C@@H](Cc1ccccc1)C(=O)NCC(=O)N1CCC[C@H]1C(=O)N[C@H](C(=O)N[C@@H](CC(C)C)C(=O)N1CCC[C@H]1C(=O)N1CCC[C@H]1C(=O)N[C@H](C(=O)N[C@@H](CCCCN)C(=O)N[C@H](C(=O)NCC(=O)N[C@@H](CO)C(=O)N[C@@H](CCC(=O)O)C(=O)N[C@H](C(=O)N[C@@H](Cc1ccc(O)cc1)C(N)=O)[C@@H](C)O)C(C)C)[C@@H](C)O)[C@@H](C)CC)C(=O)O [Compound A42] (H-SCNTSTCATQRLANK([γGlu-Palmitoyl])LHKSSNNFGPILPPTKVGSETY-NH2; disulfide 2-7)	0.552 L/kg	23.7 mL/min/kg	0.391 h
CCCCCCCCCCCCCCCC(=O)N[C@@H](CCC(=O)NCOCCOCC(=O)NCOCCOCC(=O)N[C@@H](CCC(=O)NCCCC[C@H](NC(=O)[C@H](CCC(=O)O)NC(=O)[C@H](CC(N)=O)NC(=O)[C@H](C)NC(=O)[C@H](CC(C)C)NC(=O)[C@H](CCCNC(=N)N)NC(=O)[C@H](CCC(N)=O)NC(=O)[C@@H](NC(=O)[C@H](C)NC(=O)[C@@H]1CSSC[C@H](NC(=O)[C@@H](N)CO)C(=O)N[C@@H](CC(N)=O)C(=O)N[C@@H]([C@@H](C)O)C(=O)N[C@@H](CO)C(=O)N[C@@H]([C@@H](C)O)C(=O)N1)[C@@H](C)O)C(=O)N[C@@H](Cc1c[nH]cn1)C(=O)N[C@@H](CCCCN)C(=O)N[C@@H](CO)C(=O)N[C@@H](CO)C(=O)N[C@@H](CC(N)=O)C(=O)N[C@@H](CC(N)=O)C(=O)N[C@@H](Cc1ccccc1)C(=O)NCC(=O)N1CCC[C@H]1C(=O)N[C@H](C(=O)N[C@@H](CC(C)C)C(=O)N1CCC[C@H]1C(=O)N1CCC[C@H]1C(=O)N[C@H](C(=O)N[C@@H](CCCCN)C(=O)N[C@H](C(=O)NCC(=O)N[C@@H](CO)C(=O)N[C@@H](CCC(=O)O)C(=O)N[C@H](C(=O)N[C@@H](Cc1ccc(O)cc1)C(N)=O)[C@@H](C)O)C(C)C)[C@@H](C)O)[C@@H](C)CC)C(=O)O)C(=O)O [Compound A63] (H-SCNTSTCATQRLANEK([γGlu-X4])HKSSNNFGPILPPTKVGSETY-NH2; disulfide 2-7; N-terminus assumed)	0.54 L/kg	2.66 mL/min/kg	2.81 h

More lines, now with the values ahead:

Vd	clearance	half-life	Structure (SMILES)
0.502 L/kg	1.35 mL/min/kg	4.85 h	CCCCCCCCCCCCCCCC(=O)NCC(=O)N[C@@H](CCC(=O)N[C@@H](CCC(=O)NCCCC[C@@H](NC(=O)[C@H](CCC(=O)O)NC(=O)[C@H](CC(N)=O)NC(=O)[C@H](C)NC(=O)[C@H](CC(C)C)NC(=O)[C@H](CCCNC(=N)N)NC(=O)[C@H](CCC(N)=O)NC(=O)[C@@H](NC(=O)[C@H](C)NC(=O)[C@@H]1CSSC[C@H](NC(=O)[C@@H](N)CO)C(=O)N[C@@H](CC(N)=O)C(=O)N[C@@H]([C@@H](C)O)C(=O)N[C@@H](CO)C(=O)N[C@@H]([C@@H](C)O)C(=O)N1)[C@@H](C)O)C(=O)N[C@@H](Cc1c[nH]cn1)C(=O)N[C@@H](CCCCN)C(=O)N[C@@H](CO)C(=O)N[C@@H](CO)C(=O)N[C@@H](CC(N)=O)C(=O)N[C@@H](CC(N)=O)C(=O)N[C@@H](Cc1ccccc1)C(=O)NCC(=O)N1CCC[C@H]1C(=O)N[C@H](C(=O)N[C@@H](CC(C)C)C(=O)N1CCC[C@H]1C(=O)N1CCC[C@H]1C(=O)N[C@H](C(=O)N[C@@H](CCCCN)C(=O)N[C@H](C(=O)NCC(=O)N[C@@H](CO)C(=O)N[C@@H](CCC(=O)O)C(=O)N[C@H](C(=O)N[C@@H](Cc1ccc(O)cc1)C(N)=O)[C@@H](C)O)C(C)C)[C@@H](C)O)[C@@H](C)CC)C(=O)O)C(=O)O [Compound A39] (H-SCNTSTCATQRLANE[dK]([γGlu-γGlu-Gly-Palmitoyl])HKSSNNFGPILPPTKVGSETY-NH2; disulfide 2-7)
0.174 L/kg	0.478 mL/min/kg	5.16 h	CCCCCCCCCCCCCCCC(=O)N[C@@H](CCC(=O)N[C@@H](CCC(=O)N[C@@H](CCC(=O)NCCCC[C@@H](NC(=O)[C@H](CCC(=O)O)NC(=O)[C@H](CC(N)=O)NC(=O)[C@H](C)NC(=O)[C@H](CC(C)C)NC(=O)[C@H](CCCNC(=N)N)NC(=O)[C@H](CCC(N)=O)NC(=O)[C@@H](NC(=O)[C@H](C)NC(=O)[C@@H]1CSSC[C@H](NC(=O)[C@@H](N)CO)C(=O)N[C@@H](CC(N)=O)C(=O)N[C@@H]([C@@H](C)O)C(=O)N[C@@H](CO)C(=O)N[C@@H]([C@@H](C)O)C(=O)N1)[C@@H](C)O)C(=O)N[C@@H](Cc1c[nH]cn1)C(=O)N[C@@H](CCCCN)C(=O)N[C@@H](CO)C(=O)N[C@@H](CO)C(=O)N[C@@H](CC(N)=O)C(=O)N[C@@H](CC(N)=O)C(=O)N[C@@H](Cc1ccccc1)C(=O)NCC(=O)N1CCC[C@H]1C(=O)N[C@H](C(=O)N[C@@H](CC(C)C)C(=O)N1CCC[C@H]1C(=O)N1CCC[C@H]1C(=O)N[C@H](C(=O)N[C@@H](CCCCN)C(=O)N[C@H](C(=O)NCC(=O)N[C@@H](CO)C(=O)N[C@@H](CCC(=O)O)C(=O)N[C@H](C(=O)N[C@@H](Cc1ccc(O)cc1)C(N)=O)[C@@H](C)O)C(C)C)[C@@H](C)O)[C@@H](C)CC)C(=O)O)C(=O)O)C(=O)O [Compound A53] (H-SCNTSTCATQRLANE[dK]([γGlu-γGlu-γGlu-Palmitoyl])HKSSNNFGPILPPTKVGSETY-NH2; disulfide 2-7)
0.469 L/kg	1.34 mL/min/kg	4.29 h	CCCCCCCCCCCCCCCCCC(=O)N[C@@H](CCC(=O)N[C@@H](CCC(=O)NCCCC[C@@H](NC(=O)[C@H](CCC(=O)O)NC(=O)[C@H](CC(N)=O)NC(=O)[C@H](C)NC(=O)[C@H](CC(C)C)NC(=O)[C@H](CCCNC(=N)N)NC(=O)[C@H](CCC(N)=O)NC(=O)[C@@H](NC(=O)[C@H](C)NC(=O)[C@@H]1CSSC[C@H](NC(=O)[C@@H](N)CO)C(=O)N[C@@H](CC(N)=O)C(=O)N[C@@H]([C@@H](C)O)C(=O)N[C@@H](CO)C(=O)N[C@@H]([C@@H](C)O)C(=O)N1)[C@@H](C)O)C(=O)N[C@@H](Cc1c[nH]cn1)C(=O)N[C@@H](CCCCN)C(=O)N[C@@H](CO)C(=O)N[C@@H](CO)C(=O)N[C@@H](CC(N)=O)C(=O)N[C@@H](CC(N)=O)C(=O)N[C@@H](Cc1ccccc1)C(=O)NCC(=O)N1CCC[C@H]1C(=O)N[C@H](C(=O)N[C@@H](CC(C)C)C(=O)N1CCC[C@H]1C(=O)N1CCC[C@H]1C(=O)N[C@H](C(=O)N[C@@H](CCCCN)C(=O)N[C@H](C(=O)NCC(=O)N[C@@H](CO)C(=O)N[C@@H](CCC(=O)O)C(=O)N[C@H](C(=O)N[C@@H](Cc1ccc(O)cc1)C(N)=O)[C@@H](C)O)C(C)C)[C@@H](C)O)[C@@H](C)CC)C(=O)O)C(=O)O [Compound A56] (H-SCNTSTCATQRLANE[dK]([γGlu-γGlu-Stearoyl])HKSSNNFGPILPPTKVGSETY-NH2; disulfide 2-7)
